# Reference: article PMC3085482, “Phosphorylation-Dependent Differential Regulation of Plant Growth, Cell Death, and Innate Immunity by the Regulatory Receptor-Like Kinase BAK1” (PLoS Genetics, 2011)
# Numbering of substitutions follows the chain as printed. Names and notes keep the numbering of the source.
# T1: EFR CD (MBP-EFR) (Arabidopsis thaliana, UniProt C0LGT6)
# T1 sequence (C0LGT6 682-1031): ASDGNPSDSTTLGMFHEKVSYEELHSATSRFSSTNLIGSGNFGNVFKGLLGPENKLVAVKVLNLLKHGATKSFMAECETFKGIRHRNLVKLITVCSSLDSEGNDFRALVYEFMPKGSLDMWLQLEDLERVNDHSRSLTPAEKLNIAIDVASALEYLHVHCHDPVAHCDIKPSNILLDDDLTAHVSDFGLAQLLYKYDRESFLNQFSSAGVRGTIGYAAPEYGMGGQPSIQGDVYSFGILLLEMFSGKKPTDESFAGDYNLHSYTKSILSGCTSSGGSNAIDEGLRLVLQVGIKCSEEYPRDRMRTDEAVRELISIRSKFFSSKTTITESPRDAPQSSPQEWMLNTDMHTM
# T2: BRI1 CD (MBP-BRI1) (Arabidopsis thaliana, UniProt O22476)
# T2 sequence (O22476 814-1196): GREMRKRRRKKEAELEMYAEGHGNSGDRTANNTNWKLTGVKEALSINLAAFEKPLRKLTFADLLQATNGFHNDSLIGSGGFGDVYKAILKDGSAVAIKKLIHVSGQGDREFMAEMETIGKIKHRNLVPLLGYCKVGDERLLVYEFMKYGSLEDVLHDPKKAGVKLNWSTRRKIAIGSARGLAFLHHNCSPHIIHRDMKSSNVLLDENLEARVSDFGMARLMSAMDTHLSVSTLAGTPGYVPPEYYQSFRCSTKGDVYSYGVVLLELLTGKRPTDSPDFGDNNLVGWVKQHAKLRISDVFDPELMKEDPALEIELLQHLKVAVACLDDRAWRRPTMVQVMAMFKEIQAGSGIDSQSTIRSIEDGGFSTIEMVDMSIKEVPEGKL
# B1: BAK1 CD (GST-BAK1) (Arabidopsis thaliana) (protein)
# chain: DHFFDVPAEEDPEVHLGQLKRFSLRELQVASDNFSNKNILGRGGFGKVYKGRLADGTLVAVKRLKEERTQGGELQFQTEVEMISMAVHRNLLRLRGFCMTPTERLLVYPYMANGSVASCLRERPESQPPLDWPKRQRIALGSARGLAYLHDHCDPKIIHRDVKAANILLDEEFEAVVGDFGLAKLMDYKDTHVTTAVRGTIGHIAPEYLSTGKSSEKTDVFGYGVMLLELITGQRAFDLARLANDDDVMLLDWVKGLLKEKKLEALVDVDLQGNYKDEEVEQLIQVALLCTQSSPMERPKMSEVVRMLEGDGLAERWEEWQKEEMFRQDFNYPTHHPAVSGWIIGDSTSQIENEYPSGPR
# notes: cytoplasmic domain residues 256-615, N-terminal GST tag kept (pGEX-4T1), E. coli BL21, glutathione purified
# B2: BAK1 CD (GST-BAK1) (Arabidopsis thaliana; C408Y) (protein)
# chain: B1 chain with C153Y
# notes: as for B1
# Tests used:
# [1] = biological target: T1, EFR CD (MBP-EFR); assay: in vitro kinase assay with […]-γ-ATP, SDS-PAGE autoradiography; format: biochemical; conditions: 1 µM unlabelled ATP plus [32P]-γ-ATP; labelled compound; myelin basic protein; 10 mM MgCl2, 10 mM MnCl2, pH 7.5, 30 °C
# [2] = biological target: T2, BRI1 CD (MBP-BRI1); assay: as above; format: biochemical; conditions: 1 µM unlabelled ATP plus [32P]-γ-ATP; labelled compound; myelin basic protein; 10 mM MgCl2, 10 mM MnCl2, pH 7.5, 30 °C
# [3] = substrate: Nc1ncnc2c1ncn2[C@@H]1O[C@H](COP(=O)(O)OP(=O)(O)OP(=O)(O)O)[C@@H](O)[C@H]1O; assay: autophosphorylation over ATP range, PVDF blot autoradiography (PhosphorImager); format: biochemical, Arabidopsis thaliana
molecule,measurement,setting,value
Nc1ncnc2c1ncn2[C@@H]1O[C@H](COP(=O)(O)OP(=O)(O)OP(=O)(O)O)[C@@H](O)[C@H]1O [ATP],"in vitro kinase assay with [32P]-γ-ATP, SDS-PAGE autoradiography",[1],EFR CD possessed only minor auto-phosphorylation capacity
same,"in vitro kinase assay with [32P]-γ-ATP, SDS-PAGE autoradiography",[2],BRI1 CD had a very strong auto- and trans-phosphorylation capacity
B1,Km,[3]; autophosphorylation of GST-BAK1 CD,∼7 µM
B2,Km,[3]; autophosphorylation of GST-BAK1 CD (BAK1-5 protein),∼25 µM
